Data reported in US8686113B2 (priority 2009, dated 2014).
In brackets after ≈: the same amount, converted by molar mass. Non-standard residues stand in square brackets, D forms with d. Residues, ends and D or L forms follow the SMILES beside them. Arg(NO2) = N=C(NCCC[C@H](N)C(=O)O)N[N+](=O)[O-]; NMeR = CN[C@@H](CCCNC(=N)N)C(=O)O; hArg = N=C(N)NCCCC[C@H](N)C(=O)O; β3hR = N=C(N)NCCC[C@H](N)CC(=O)O; Agp = N=C(N)NC[C@H](N)C(=O)O; Orn = NCCC[C@H](N)C(=O)O; Dap = NC[C@H](N)C(=O)O

Key:
M. luteus 10240 = assay: Growth inhibition assay (microdilution MIC); type: cell-based, Micrococcus luteus; settings: 10240, 20 h
Description: (§1) The minimum inhibitory concentrations (MIC) of the antimicrobial peptides and peptide derivatives were determined in microdilution assays. These used a continuous peptide dilution in sterile flat-bottomed 96-well microtiter plates (polystyrene, Greiner Bio-One GmbH, Frickenhausen, Germany) and a total volume of 100 μL per well. The aqueous peptide or peptidomimetic solutions were diluted with 1% TSB water, to obtain a final concentration of 256 μg/mL. 50 μL of the peptide or peptidomimetic solution was pipetted into the first well of each series and stirred. From this solution, 50 μL was transferred to the second well, stirred and again 50 μL was transferred to the next well, and so on. A double dilution series is obtained, beginning at 256 μg/mL in the first well to 125 ng/mL in the twelfth well. The bacteria, e.g. E. coli BL21 A1, were cultured overnight at 37° C. in nutrient broth (NB, Carl Roth GmbH+Co. KG, Karlsruhe, Germany). 50 μL of a 5×10^6 bacteria/mL suspension in 1% TSB was added to each well of the microtiter plate and thus a final concentration of the peptides or peptidomimetics from 128 μg/mL (well 1) to 62.5 ng/mL (well 12) was established in each series. The plates were incubated at 37° C. for 20 h and then the absorption was measured at 595 nm with a TECAN microtiter plate spectrophotometer (Tecan Trading AG, Mannedorf, Switzerland). The MIC values of all peptides and peptidomimetics were determined in triplicate. Sterile water was used as negative control. The MIC value represents the lowest peptide concentration at which no bacterial growth is observed after an incubation time of 20 h at 37° C.
(§2) The MIC values of the peptides and peptide derivatives against Escherichia coli BL21 A1 and Micrococcus luteus ATCC 10240 are given in Table 7.

E. coli BL21 A1 = type: cell-based, Escherichia coli; settings: BL21, 20 h
Description: as §1, §2

Row | MIC M. luteus 10240 (M. luteus 10240) [µg/mL] | MIC E. coli BL21 A1 (E. coli BL21 A1) [µg/mL] | Structure (SMILES)
1 | 64 (≈ 27.1 µM) | 32 (≈ 13.5 µM) | CC[C@H](C)[C@H](NC(=O)[C@H](CCCNC(=N)N)NC(=O)[C@H](CCCNC(=N)N)NC(=O)[C@@H]1CCCN1C(=O)[C@@H]1CCCN1C(=O)[C@H](CCCNC(=N)N)NC(=O)[C@@H]1CCCN1C(=O)[C@H](CCCNC(=N)N)NC(=O)[C@@H]1CCCN1C(=O)[C@H](CC(C)C)NC(=O)[C@H](Cc1ccc(O)cc1)NC(=O)[C@@H]1CCCN1C(=O)[C@@H]1CCCN1C(=O)[C@H](CCCCN)NC(=O)[C@H](CC(=O)O)NC(=O)[C@@H](N)C(C)C)C(=O)N[C@@H](Cc1ccc(O)cc1)C(=O)N[C@@H](CC(N)=O)C(=O)N[C@@H](CNC(C)=O)C(N)=O [compound 52] (H-VDKPPYLPRPRPPRRIYN[Dap](Ac)-NH2; N-terminus assumed)
2 | 8 (≈ 3.39 µM) | 8 (≈ 3.39 µM) | CC[C@H](C)[C@H](NC(=O)[C@H](CCCNC(=N)N)NC(=O)[C@H](CCCNC(=N)N)NC(=O)[C@@H]1CCCN1C(=O)[C@@H]1CCCN1C(=O)[C@H](CCCNC(=N)N)NC(=O)[C@@H]1CCCN1C(=O)[C@H](CCCNC(=N)N)NC(=O)[C@@H]1CCCN1C(=O)[C@H](CC(C)C)NC(=O)[C@H](Cc1ccc(O)cc1)NC(=O)[C@@H]1CCCN1C(=O)[C@@H]1CCCN1C(=O)[C@H](CCCCN)NC(=O)[C@H](CC(=O)O)NC(=O)[C@@H](N)C(C)C)C(=O)N[C@@H](Cc1ccc(O)cc1)C(=O)N[C@@H](CC(N)=O)C(=O)N[C@@H](CNC(=N)N)C(N)=O [compound 54] (H-VDKPPYLPRPRPPRRIYN[Agp]-NH2)
3 | 16 (≈ 6.57 µM) | 8 (≈ 3.29 µM) | CC[C@H](C)[C@H](NC(=O)[C@H](CCCNC(=N)N)NC(=O)[C@H](CCCNC(=N)N)NC(=O)[C@@H]1CCCN1C(=O)[C@@H]1CCCN1C(=O)[C@H](CCCNC(=N)N)NC(=O)[C@@H]1CCCN1C(=O)[C@H](CCCNC(=N)N)NC(=O)[C@@H]1CCCN1C(=O)[C@H](CC(C)C)NC(=O)[C@H](Cc1ccc(O)cc1)NC(=O)[C@@H]1CCCN1C(=O)[C@@H]1CCCN1C(=O)[C@H](CCCCN)NC(=O)[C@H](CC(=O)O)NC(=O)[C@@H](N)C(C)C)C(=O)N[C@@H](Cc1ccc(O)cc1)C(=O)N[C@@H](CC(N)=O)C(=O)N[C@@H](CCCNC(=N)N[N+](=O)[O-])C(N)=O [compound 55] (H-VDKPPYLPRPRPPRRIYN[Arg(NO2)]-NH2)
4 | 4 (≈ 1.66 µM) | 8 (≈ 3.33 µM) | CC[C@H](C)[C@H](NC(=O)[C@H](CCCNC(=N)N)NC(=O)[C@H](CCCNC(=N)N)NC(=O)[C@@H]1CCCN1C(=O)[C@@H]1CCCN1C(=O)[C@H](CCCNC(=N)N)NC(=O)[C@@H]1CCCN1C(=O)[C@H](CCCNC(=N)N)NC(=O)[C@@H]1CCCN1C(=O)[C@H](CC(C)C)NC(=O)[C@H](Cc1ccc(O)cc1)NC(=O)[C@@H]1CCCN1C(=O)[C@@H]1CCCN1C(=O)[C@H](CCCCN)NC(=O)[C@H](CC(=O)O)NC(=O)[C@@H](N)C(C)C)C(=O)N[C@@H](Cc1ccc(O)cc1)C(=O)N[C@@H](CC(N)=O)C(=O)N(C)[C@@H](CCCNC(=N)N)C(N)=O [compound 56] (H-VDKPPYLPRPRPPRRIYN[NMeR]-NH2; N-terminus assumed)
5 | 8 (≈ 3.33 µM) | 8 (≈ 3.33 µM) | CC[C@H](C)[C@H](NC(=O)[C@H](CCCNC(=N)N)NC(=O)[C@H](CCCNC(=N)N)NC(=O)[C@@H]1CCCN1C(=O)[C@@H]1CCCN1C(=O)[C@H](CCCNC(=N)N)NC(=O)[C@@H]1CCCN1C(=O)[C@H](CCCNC(=N)N)NC(=O)[C@@H]1CCCN1C(=O)[C@H](CC(C)C)NC(=O)[C@H](Cc1ccc(O)cc1)NC(=O)[C@@H]1CCCN1C(=O)[C@@H]1CCCN1C(=O)[C@H](CCCCN)NC(=O)[C@H](CC(=O)O)NC(=O)[C@@H](N)C(C)C)C(=O)N[C@@H](Cc1ccc(O)cc1)C(=O)N[C@@H](CC(N)=O)C(=O)N[C@@H](CCCCNC(=N)N)C(N)=O [compound 57] (H-VDKPPYLPRPRPPRRIYN[hArg]-NH2)
6 | 2 (≈ 0.842 µM) | 4 (≈ 1.68 µM) | CC[C@H](C)[C@H](NC(=O)[C@H](CNC(=N)N)NC(=O)[C@H](CCCNC(=N)N)NC(=O)[C@@H]1CCCN1C(=O)[C@@H]1CCCN1C(=O)[C@H](CCCNC(=N)N)NC(=O)[C@@H]1CCCN1C(=O)[C@H](CCCNC(=N)N)NC(=O)[C@@H]1CCCN1C(=O)[C@H](CC(C)C)NC(=O)[C@H](Cc1ccc(O)cc1)NC(=O)[C@@H]1CCCN1C(=O)[C@@H]1CCCN1C(=O)[C@H](CCCCN)NC(=O)[C@H](CC(=O)O)NC(=O)[C@@H](N)C(C)C)C(=O)N[C@@H](Cc1ccc(O)cc1)C(=O)N[C@@H](CC(N)=O)C(=O)N[C@@H](CCCCNC(=N)N)C(N)=O [compound 65] (H-VDKPPYLPRPRPPR[Agp]IYN[hArg]-NH2)
7 | 4 (≈ 1.71 µM) | 8 (≈ 3.43 µM) | CC[C@H](C)[C@H](NC(=O)[C@H](CNC(=N)N)NC(=O)[C@H](CCCNC(=N)N)NC(=O)[C@@H]1CCCN1C(=O)[C@@H]1CCCN1C(=O)[C@H](CCCNC(=N)N)NC(=O)[C@@H]1CCCN1C(=O)[C@H](CCCNC(=N)N)NC(=O)[C@@H]1CCCN1C(=O)[C@H](CC(C)C)NC(=O)[C@H](Cc1ccc(O)cc1)NC(=O)[C@@H]1CCCN1C(=O)[C@@H]1CCCN1C(=O)[C@H](CCCCN)NC(=O)[C@H](CC(=O)O)NC(=O)[C@@H](N)C(C)C)C(=O)N[C@@H](Cc1ccc(O)cc1)C(=O)N[C@@H](CC(N)=O)C(=O)N[C@@H](CNC(=N)N)C(N)=O [compound 66] (H-VDKPPYLPRPRPPR[Agp]IYN[Agp]-NH2)
8 | 4 (≈ 1.68 µM) | 4 (≈ 1.68 µM) | CC[C@H](C)[C@H](NC(=O)[C@H](CCCCNC(=N)N)NC(=O)[C@H](CCCNC(=N)N)NC(=O)[C@@H]1CCCN1C(=O)[C@@H]1CCCN1C(=O)[C@H](CCCNC(=N)N)NC(=O)[C@@H]1CCCN1C(=O)[C@H](CCCNC(=N)N)NC(=O)[C@@H]1CCCN1C(=O)[C@H](CC(C)C)NC(=O)[C@H](Cc1ccc(O)cc1)NC(=O)[C@@H]1CCCN1C(=O)[C@@H]1CCCN1C(=O)[C@H](CCCCN)NC(=O)[C@H](CC(=O)O)NC(=O)[C@@H](N)C(C)C)C(=O)N[C@@H](Cc1ccc(O)cc1)C(=O)N[C@@H](CC(N)=O)C(=O)N[C@@H](CNC(=N)N)C(N)=O [compound 68] (H-VDKPPYLPRPRPPR[hArg]IYN[Agp]-NH2)
9 | 4 (≈ 1.72 µM) | 4 (≈ 1.72 µM) | CC[C@H](C)[C@H](NC(=O)[C@H](CCCN)NC(=O)[C@H](CCCNC(=N)N)NC(=O)[C@@H]1CCCN1C(=O)[C@@H]1CCCN1C(=O)[C@H](CCCNC(=N)N)NC(=O)[C@@H]1CCCN1C(=O)[C@H](CCCNC(=N)N)NC(=O)[C@@H]1CCCN1C(=O)[C@H](CC(C)C)NC(=O)[C@H](Cc1ccc(O)cc1)NC(=O)[C@@H]1CCCN1C(=O)[C@@H]1CCCN1C(=O)[C@H](CCCCN)NC(=O)[C@H](CC(=O)O)NC(=O)[C@@H](N)C(C)C)C(=O)N[C@@H](Cc1ccc(O)cc1)C(=O)N[C@@H](CC(N)=O)C(=O)N[C@@H](CNC(=N)N)C(N)=O [compound 69] (H-VDKPPYLPRPRPPR[Orn]IYN[Agp]-NH2)

Row | Structure (SMILES) | MIC M. luteus 10240 (M. luteus 10240) [µg/mL] | MIC E. coli BL21 A1 (E. coli BL21 A1) [µg/mL]
10 | CC[C@H](C)[C@H](NC(=O)C[C@H](CCCNC(=N)N)NC(=O)[C@H](CCCNC(=N)N)NC(=O)[C@@H]1CCCN1C(=O)[C@@H]1CCCN1C(=O)[C@H](CCCNC(=N)N)NC(=O)[C@@H]1CCCN1C(=O)[C@H](CCCNC(=N)N)NC(=O)[C@@H]1CCCN1C(=O)[C@H](CC(C)C)NC(=O)[C@H](Cc1ccc(O)cc1)NC(=O)[C@@H]1CCCN1C(=O)[C@@H]1CCCN1C(=O)[C@H](CCCCN)NC(=O)[C@H](CC(=O)O)NC(=O)[C@@H](N)C(C)C)C(=O)N[C@@H](Cc1ccc(O)cc1)C(=O)N[C@@H](CC(N)=O)C(=O)N[C@@H](CCCNC(=N)N)C(N)=O [compound 62] (H-VDKPPYLPRPRPPR[β3hR]IYNR-NH2) | 16 (≈ 6.66 µM) | 4 (≈ 1.66 µM)
